Source: patent publication US5869662A, “Photochromic benzopyran compounds” (Vision-Ease Lens, Inc., priority 1997, dated 1999)

Experiments:
[1] = Maximum absorption wavelength (λmax) of the activated form in chloroform under ultraviolet irradiation; format: physicochemical; conditions: UV irradiation, 350 nm
Experimental: Two grams of the propargyl alcohol obtained in Step 1 were mixed with 1.25 grams of 2-hydroxydibenzofuran in 200 milliliters of benzene. Twenty milligrams of p-toluenesultonic acid were then added and the mixture was stirred under reflux for 8 hours. The resultant mixture was cooled and washed with 10% aqueous sodium hydroxide. The organic solvent (benzene) was removed using a rotary evaporator. The resulting material was dissolved in hexane and the resulting hexane solution was cooled to yield a recrystallized product.
The recrystallized product formed in Step 2 of Example 1; the 3-(4-biphenytyl)-3-phenyl-8-methoxy-3H-naphtho[2,1b]pyran formed in Comparative Example 1; and a purchased sample of 3,3-diphenyl-3H-naphtho-[2,1b]pyran (identified as Comparative Example 2) were each individually dissolved in chloroform in separate containers. These chloroform dissolved substances were then irradiated with ultraviolet light with a maximum wavelength of 350 manometers and measured for maximum absorption wavelength, λmax. The fade time, T1/2, was then determined for each of the irradiated substances. […] The maximum absorption wavelength and fade time determined for the irradiated substances of Example 1 and Comparative Examples 1-2 are presented in Table 1: […]

[2] = Becker patent; cited from earlier work
[3] = Fade time (T1/2) of the activated form in chloroform at room temperature; format: physicochemical; conditions: room temperature (72° F.), absorbance of activated form falls to one half of maximum after isolation from UV
Experimental: These chloroform dissolved substances were then irradiated with ultraviolet light with a maximum wavelength of 350 manometers and measured for maximum absorption wavelength, λmax. The fade time, T1/2, was then determined for each of the irradiated substances. The fade time for of the chloroform-dissolved substances is defined as the time interval, at room temperature (72° F.), for the absorbance of the activated form of each chloroform-dissolved substance to decrease to one half of the maximum absorbance, after the substance is isolated from the activating source of ultraviolet light.

Row | SMILES | maximum absorption wavelength, λmax (only or shorter-wavelength maximum) [1] | photochromic at room temperature [2] | fade time, T1/2 [3]
1 | COc1ccc2c3c(ccc2c1)OC(c1ccccc1)(c1ccc(-c2ccccc2)cc1)C=C3 (stereo not shown) [Comparative Example 1, 3-(4-biphenylyl)-3-phenyl-8-methoxy-3H-naphtho[2,1b]pyran] | 484 nanometers | – | –
2 | C1=CC(c2ccccc2)(c2ccccc2)Oc2ccc3ccccc3c21 [Comparative Example 2, 3,3-diphenyl-3H-naphtho-[2,1b]pyran] | 434 nanometers | photochromic at room temperature | 13 s
